Measurements taken from ChEMBL document CHEMBL1201862, “PubChem BioAssay data set” (2004).
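Following 48 hours of exposure in 96-well plates, responses at five concentrations were used to interpolate endpoints linearly. At the GI50, growth is halved.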 Activity calls are given as the source filed them. Rule as the data show it: active = GI50 up to about 1.1 µM and inactive = higher.

Columns and labels:
Assay in all cases: growth of human tumour cells (NCI), 48 h
OVCAR-8 = test system: OVCAR-8
OVCAR-3 = test system: OVCAR-3
HCT-116 = test system: HCT-116
Malme-3M = test system: Malme-3M
EKVX = test system: EKVX
LOX IMVI = test system: LOX IMVI
SK-OV-3 = test system: SK-OV-3
IGROV-1 = test system: IGROV-1
UO-31 = test system: UO-31
KM-20L2 = test system: KM-20L2
HCT-15 = test system: HCT-15
TK-10 = test system: TK-10
MOLT-4 = test system: MOLT-4
SF-295 = test system: SF-295
CAKI-1 = test system: CAKI-1
HCC 2998 = test system: HCC 2998
RPMI-8226 = test system: RPMI-8226
OVCAR-4 = test system: OVCAR-4
SK-MEL-28 = test system: SK-MEL-28
HOP-92 = test system: HOP-92
CCRF-CEM = test system: CCRF-CEM
SNB-78 = test system: SNB-78
M19-MEL = test system: M19-MEL
A498 = test system: A498
SF-268 = test system: SF-268
XF498 = test system: XF498
OVCAR-5 = test system: OVCAR-5
HOP-18 = test system: HOP-18
M14 = test system: M14
HL-60 = test system: HL-60
DMS-273 = test system: DMS-273
NCI-H226 = test system: NCI-H226
COLO 205 = test system: COLO 205
SF-539 = test system: SF-539
A549 = test system: A549
NCI-H23 = test system: NCI-H23
ACHN = test system: ACHN
HOP-62 = test system: HOP-62
DMS-114 = test system: DMS-114
SR = test system: SR
UACC-62 = test system: UACC-62
SNB-75 = test system: SNB-75
SN12C = test system: SN12C
SK-MEL-2 = test system: SK-MEL-2
SW-620 = test system: SW-620
U-251 = test system: U-251
RXF 393 = test system: RXF 393
SK-MEL-5 = test system: SK-MEL-5
HT-29 = test system: HT-29
K562 = test system: K562
KM12 = test system: KM12
LXFL 529 = test system: LXFL 529
NCI-H460 = test system: NCI-H460
DLD-1 = test system: DLD-1
786-0 = test system: 786-0
UACC-257 = test system: UACC-257
SNB-19 = test system: SNB-19
RXF 631 = test system: RXF 631
NCI-H522 = test system: NCI-H522
DU-145 = test system: DU-145
NCI/ADR-RES = test system: NCI/ADR-RES
T47D = test system: T47D
PC-3 = test system: PC-3
MDA-MB-231 = test system: MDA-MB-231
MDA-MB-435 = test system: MDA-MB-435
MDA-N = test system: MDA-N
MCF7 = test system: MCF7
BT-549 = test system: BT-549

Measured: GI50

Cc1ccc(/C=N/NS(=O)(=O)c2ccccc2)cc1C
inactive: OVCAR-8 > 100 µM | OVCAR-3 > 100 µM | HCT-116 76 µM | Malme-3M > 100 µM | EKVX > 100 µM | LOX IMVI 88.1 µM | SK-OV-3 > 100 µM | IGROV-1 51.5 µM | UO-31 > 100 µM | KM-20L2 > 100 µM | TK-10 > 100 µM | MOLT-4 > 100 µM | SF-295 45.7 µM | CAKI-1 68.7 µM | HCC 2998 > 100 µM | RPMI-8226 > 100 µM | OVCAR-4 > 100 µM | SK-MEL-28 > 100 µM | HOP-92 > 100 µM | CCRF-CEM > 100 µM | SNB-78 > 100 µM | M19-MEL > 100 µM | A498 59.4 µM | SF-268 > 100 µM | XF498 87.3 µM | OVCAR-5 > 100 µM | HOP-18 > 100 µM | M14 > 100 µM | HL-60 > 100 µM | DMS-273 > 100 µM | NCI-H226 > 100 µM | COLO 205 > 100 µM | SF-539 > 100 µM | A549 > 100 µM | NCI-H23 > 100 µM | ACHN > 100 µM | HOP-62 > 100 µM | DMS-114 46.1 µM | SR 86.7 µM | UACC-62 98.9 µM | SNB-75 > 100 µM | SN12C > 100 µM | SK-MEL-2 > 100 µM | SW-620 > 100 µM | U-251 > 100 µM | RXF 393 > 100 µM | SK-MEL-5 > 100 µM | HT-29 > 100 µM | K562 > 100 µM | KM12 > 100 µM | LXFL 529 36.5 µM | NCI-H460 > 100 µM | DLD-1 > 100 µM | 786-0 > 100 µM | UACC-257 > 100 µM
> 100 µM: HCT-15

N#CC(C(=O)CCC(=O)Nc1ccc(Cl)c(Cl)c1)c1ccc(Cl)cc1 (stereo unspecified)
17.1 µM: HCT-15
inactive: OVCAR-8 > 100 µM | OVCAR-3 > 100 µM | HCT-116 > 100 µM | Malme-3M > 100 µM | EKVX > 100 µM | LOX IMVI > 100 µM | IGROV-1 80 µM | UO-31 75.2 µM | KM-20L2 15 µM | SNB-19 > 100 µM | TK-10 > 100 µM | MOLT-4 53.7 µM | SF-295 69.5 µM | CAKI-1 37.3 µM | HCC 2998 > 100 µM | RPMI-8226 48.2 µM | OVCAR-4 > 100 µM | SK-MEL-28 > 100 µM | HOP-92 80.9 µM | SNB-78 > 100 µM | M19-MEL 82.2 µM | A498 > 100 µM | SF-268 > 100 µM | OVCAR-5 23.9 µM | HOP-18 > 100 µM | M14 51.4 µM | HL-60 83.9 µM | DMS-273 39.3 µM | NCI-H226 > 100 µM | SF-539 > 100 µM | A549 84.9 µM | NCI-H23 > 100 µM | ACHN 17.4 µM | HOP-62 > 100 µM | RXF 631 90.6 µM | DMS-114 75.3 µM | UACC-62 11.6 µM | SNB-75 51.1 µM | SN12C > 100 µM | SK-MEL-2 22.9 µM | SW-620 > 100 µM | U-251 > 100 µM | RXF 393 > 100 µM | SK-MEL-5 65.6 µM | HT-29 > 100 µM | K562 14.6 µM | KM12 47.5 µM | LXFL 529 21.3 µM | NCI-H460 > 100 µM | DLD-1 55.5 µM | 786-0 > 100 µM | UACC-257 > 100 µM

CCOC(=O)/C(C)=C(/O)C(=O)OCC
> 100 µM: HCT-15
inactive: OVCAR-8 > 100 µM | OVCAR-3 > 100 µM | HCT-116 > 100 µM | Malme-3M > 100 µM | EKVX > 100 µM | LOX IMVI > 100 µM | SK-OV-3 > 100 µM | IGROV-1 > 100 µM | UO-31 > 100 µM | SNB-19 > 100 µM | TK-10 > 100 µM | MOLT-4 > 100 µM | SF-295 > 100 µM | CAKI-1 > 100 µM | HCC 2998 > 100 µM | RPMI-8226 > 100 µM | OVCAR-4 > 100 µM | SK-MEL-28 > 100 µM | NCI-H522 > 100 µM | HOP-92 > 100 µM | CCRF-CEM > 100 µM | SNB-78 > 100 µM | A498 > 100 µM | SF-268 > 100 µM | XF498 > 100 µM | OVCAR-5 > 100 µM | HOP-18 > 100 µM | M14 > 100 µM | HL-60 > 100 µM | DMS-273 > 100 µM | NCI-H226 > 100 µM | COLO 205 > 100 µM | SF-539 > 100 µM | A549 > 100 µM | NCI-H23 > 100 µM | ACHN > 100 µM | HOP-62 > 100 µM | RXF 631 > 100 µM | DMS-114 > 100 µM | UACC-62 > 100 µM | SNB-75 > 100 µM | SN12C > 100 µM | SK-MEL-2 > 100 µM | SW-620 > 100 µM | U-251 > 100 µM | RXF 393 > 100 µM | SK-MEL-5 > 100 µM | HT-29 > 100 µM | K562 > 100 µM | KM12 > 100 µM | LXFL 529 > 100 µM | NCI-H460 > 100 µM | DLD-1 > 100 µM | 786-0 > 100 µM | UACC-257 > 100 µM

C[C@]12CC[C@@H]3c4ccc(O)cc4CC[C@H]3[C@@H]1CC[C@@H]2OC(=O)CCC1CCCC1 [ESTRADIOL CYPIONATE]
16.2 µM: HCT-15
inactive: OVCAR-8 16.7 µM | OVCAR-3 16.4 µM | DU-145 13.7 µM | HCT-116 17.3 µM | NCI/ADR-RES 16.5 µM | Malme-3M 26.9 µM | EKVX 7.45 µM | LOX IMVI 18 µM | SK-OV-3 19.4 µM | IGROV-1 17.6 µM | UO-31 18.4 µM | KM-20L2 17.7 µM | SNB-19 16.9 µM | TK-10 23.4 µM | MOLT-4 17.8 µM | SF-295 16.7 µM | CAKI-1 19.1 µM | HCC 2998 19.8 µM | RPMI-8226 18.5 µM | OVCAR-4 17.5 µM | SK-MEL-28 18.2 µM | NCI-H522 17.1 µM | T47D 14.2 µM | HOP-92 23.1 µM | CCRF-CEM 17.8 µM | PC-3 16.6 µM | SNB-78 56.9 µM | M19-MEL 27.4 µM | A498 20.3 µM | SF-268 21.8 µM | XF498 18.9 µM | OVCAR-5 26.2 µM | HOP-18 20.3 µM | M14 20.1 µM | HL-60 17.8 µM | DMS-273 14.3 µM | MDA-MB-231 17.5 µM | NCI-H226 19.1 µM | MDA-MB-435 10 µM | COLO 205 19.1 µM | SF-539 18.8 µM | A549 17.8 µM | NCI-H23 17.7 µM | ACHN 23.8 µM | HOP-62 18.8 µM | DMS-114 30.8 µM | MDA-N 6.85 µM | SR 17.8 µM | UACC-62 14.4 µM | SN12C 16.7 µM | SK-MEL-2 23.2 µM | SW-620 20.9 µM | U-251 18.7 µM | RXF 393 10.4 µM | SK-MEL-5 17.5 µM | MCF7 17.1 µM | HT-29 17.9 µM | K562 17.2 µM | KM12 26.8 µM | LXFL 529 17.5 µM | NCI-H460 18.7 µM | DLD-1 33 µM | 786-0 16.3 µM | BT-549 17.7 µM | UACC-257 35 µM
